Test [1] deals with LmajFGSK-3 (LmajGSK-3 short Y102F mutant) (Leishmania major, UniProt Q4QE15, Y102F). The experiment in a line: biochemical. The class given is biochemical, L. major.
In the next test the target is HsGSK-3β (Homo sapiens, UniProt P49841). Nature of the test: Kinase-Glo assay, inhibition of human GSK-3β. As to conditions: read-out: Mean IC50 (SD), HsGSK-3b; 3.2 μM BioGSP-2, 2 μM ATP, 90 minutes at 30°C. The format is biochemical. On the technique in general: Kinase-Glo reads ATP consumption through a luciferase reaction.
Sequence of HsGSK-3β (P49841 whole entry): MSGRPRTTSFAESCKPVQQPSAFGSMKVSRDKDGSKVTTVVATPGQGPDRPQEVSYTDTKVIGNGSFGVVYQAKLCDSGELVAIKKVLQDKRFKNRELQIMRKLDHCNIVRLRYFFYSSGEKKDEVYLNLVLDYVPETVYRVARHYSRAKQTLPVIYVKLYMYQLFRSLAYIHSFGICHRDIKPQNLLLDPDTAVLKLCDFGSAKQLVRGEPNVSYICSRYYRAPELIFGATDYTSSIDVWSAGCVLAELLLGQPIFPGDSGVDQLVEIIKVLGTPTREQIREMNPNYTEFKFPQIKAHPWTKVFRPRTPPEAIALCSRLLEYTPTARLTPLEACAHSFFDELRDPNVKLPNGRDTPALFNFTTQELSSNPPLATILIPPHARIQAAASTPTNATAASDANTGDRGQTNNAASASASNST
Another test deals with LinfGSK-3 short (Leishmania infantum, UniProt A4HXQ3). Nature of the test: biochemical. The format is biochemical, L. infantum. The settings on record: for mode of inhibition of LinfGSK-3 short (velocity at different ATP concentrations): Fig. 3A.
Test [2] addresses LmajEGSK-3 (LmajGSK-3 short D105E mutant) (Leishmania major, UniProt Q4QE15, D105E). The experiment in a line: biochemical. The format is biochemical, L. major.
A further test addresses LmajGSK-3 short (Leishmania major, UniProt Q4QE15). The experiment in a line: biochemical. Details: species or system L. major.
Another test addresses TbruGSK-3 short (Trypanosoma brucei brucei, UniProt Q388M1). Nature of the test: biochemical. The format is biochemical, T. brucei.
The target in test [3] is LmajEFGSK-3 (LmajGSK-3 short Y102F and D105E double mutant) (Leishmania major, UniProt Q4QE15, D105E/Y102F). The experiment in a line: biochemical. Details: species or system L. major.
The mark [4] stands for this setting: read-out: Mean IC50 (SD), LmajFGSK-3, Y102F mutant, 8.2 nM enzyme, 3.2 μM BioGSP-2, 2 μM ATP, 90 minutes at 30°C.

Where two headings read alike, the source gives them in different places.

By IC50 is commonly meant the midpoint of a concentration-inhibition curve.

Turning to `N#CCCc1ccc2c(c1)-c1[nH]c3ccc([N+](=O)[O-])cc3c1CC(=O)N2` [Alster-paullone, 2-cyanoethyl], the IC50 in test [1] (setting [4]) was determined as 310 nM; at HsGSK-3β, 20 nM.
The corresponding values for `O=C1Nc2ccccc2/C1=C/c1cnc[nH]1` [Angio-genesis inhibitor] are 8470 nM and 1620 nM.
With `COc1ccc(CNC(=O)Nc2ncc([N+](=O)[O-])s2)cc1` [GSK-3β Inhibitor VIII], on LinfGSK-3 short (2.8 nM enzyme, 3.2 μM BioGSP-2, 2 μM ATP, 90 minutes at 30°C), the “Mean IC50 (SD), LinfGSK-3” value was “no activity”. Also, the “Mean IC50 (SD), LmajFGSK-3” value in test [1] (Y102F mutant, 8.2 nM enzyme, 3.2 μM BioGSP-2, 2 μM ATP, 90 minutes at 30°C) was “no activity”. Also, in test [2] (D105E mutant, 8.2 nM enzyme, 3.2 μM BioGSP-2, 2 μM ATP, 90 minutes at 30°C), the “Mean IC50 (SD), LmajEGSK-3” value is “no activity”. For the same compound, the “Mean IC50 (SD), LmajGSK-3” value on LmajGSK-3 short (8.2 nM enzyme, 3.2 μM BioGSP-2, 2 μM ATP, 90 minutes at 30°C) is on record as “no activity”.
With `O=C1Nc2ccc3ncsc3c2/C1=C/Nc1ccc(S(=O)(=O)Nc2ccccn2)cc1` [GW8510], the “mode of inhibition of LinfGSK-3 short (velocity at different ATP concentrations)” value at LinfGSK-3 short is listed as “ATP competitive”. In addition, the IC50 on LinfGSK-3 short (read-out: IC50 value for LinfGSK-3 short) came out at 628 nM; in test [1] (read-out: IC50 value for the LmajGSK-3 short Y102F mutant) it was 93 nM; in test [1] (setting [4]), 90 nM; at TbruGSK-3 short (read-out: IC50 value for TbruGSK-3 short), 21 nM; on HsGSK-3β it was 20 nM. For the same compound, the “effect of mutation D105E of LmajGSK-3 short on sensitivity to inhibition” value in test [2] (relative to wild type LmajGSK-3 short) is on record as roughly 2 fold.
For the compound `NC1=NC(=O)/C(=C2\CCNC(=O)c3[nH]c(Br)cc32)N1` [Hymeni-aldisine, Stylissa dami-cornis, Hymenialdisine], the IC50 at LinfGSK-3 short amounted to 18200 nM; in test [1] it was 16100 nM; in test [3], 9250 nM; at TbruGSK-3 short it was 3950 nM; in test [2], 10400 nM; on LmajGSK-3 short, 13100 nM.
As to `O=C1Nc2ccc(S(=O)(=O)O)cc2C1=C1Nc2ccccc2C1=NO` [Indirubin-3'-monoxime-5-sulphonic Acid], the figures for the IC50 (in test [1] (setting [4]); on HsGSK-3β) were 930 nM and 60 nM, respectively.
The corresponding values for `Cn1cc(C2=C(c3cn(CCCN)c4ccccc34)C(=O)NC2=O)c2ccccc21` [Ro-31-7549] are 1080 nM and 4 nM.
Take `COc1ccc2c(c1)/C(=C/c1cnc[nH]1)C(=O)N2` [SU9516]: the half-maximal inhibitory concentration (IC50) amounted to 1870 nM against LinfGSK-3 short; 1400 nM in test [1]; 1290 nM in test [3]; 590 nM on TbruGSK-3 short; 3150 nM in test [2]; 3040 nM on LmajGSK-3 short.
Take Cdk1/2 Inhibitor III: the “mode of inhibition of LinfGSK-3 short (velocity at different ATP concentrations)” value at LinfGSK-3 short is “ATP competitive”. Further, the values for the IC50 (in test [1] (setting [4]); at HsGSK-3β) were 150 nM and 210 nM, respectively.

(Values after publication PMC3045540 (Molecular and biochemical parasitology, 2010).)
